Source: patent US7893068B2, “Physiologically active substances” (Mercian Corporation, priority 2002, dated 2011)
Read-outs that look alike come from different tables or passages of the source.

Key:
VEGF promoter = experiment: VEGF transcription-suppressing activity (VEGF promoter-PLAP reporter, U251/1-8 cells, hypoxia); format: cell-based; conditions: Homo sapiens, read-out: VEGF transcription-suppressing activities (IC50: nM)
Source text: In order to prepare reporter system reflecting transcription from VEGF promoter, VEGF promoter sequence was cloned, and inserted in secretory alkaline phosphatase (PLAP) vector to construct reporter vector.
In order to obtain the promoter region of human VEGF, VEGF genomic DNA was cloned from phage library. PCR primers having the sequences described in Sequence Numbers 1 and 2 were designed based on VEGF cDNA (GenBank accession number: X62568) and a fragment having about 340 bp was obtained by carrying out PCR. Human genomic phage library (Human genomic library, Clontech Co.) was screened using this as a probe to obtain VEGF genomic DNA. The DNA was digested by EcoRI, and the resultant fragments were inserted in the EcoRI site of pUC18. Finally, pUC18-VEGFA containing about 5.4 kb of VEGF 5′ flanking region was obtained. The pUC18-VEGFA was digested by KpnI/NheI, VEGF promoter region of about 2.3 kb obtained was inserted in the multi cloning site KpnI/NheI of secretory alkaline phosphatase (PLAP) vector (Goto et al, Mol. Pharmacol., 49, 860-873, 1996), and thus, VEGF-PLAP vector was constructed.
The above-mentioned VEGF-PLAP vector was transfected in the U251 cell cultured in the DULBECCO-modified eagle medium (DMEM; manufactured by SIGMA Co., Ltd.) containing 10% fetal calf serum, and the cells were cultured in the presence of 1 mg/mL G418 (Merck Co.) to establish G418 resistant stable clone (U251/1-8 cell).
It was confirmed that U251/1-8 cell secreted PLAP under hypoxic condition (2% O2 incubator) in the same manner as in the report (Cell. Mol. Biol. Res. 40, 35-39, 1994) and was a reporter system reflecting the transcription from VEGF promoter. The screening of the compound suppressing VEGF production which was induced by hypoxic stimulation was carried out below using the clone.
In order to remove the influence of alkaline phosphates in serum, U251/1-8 cells were rinsed twice with the adequate amount of PBS (Phosphate buffered saline), diluted in the DMEM medium containing 10% of serum in which alkaline phosphates was inactivated by the treatment of 65° C. for 20 min., and dispensed in 96-well plates by 4×10^4 cells/180 μL.
After culturing at 37° C. overnight in a CO2 incubator (5% CO2), 20 μL of the above-mentioned incubation solution containing the test compound diluted with 3-fold succession was added, and then they were incubated in a hypoxic (2% […]) incubator for 18 hours. With respect to the PLAP activity in the culture supernatants, 10 μL of the supernatants was added to 50 μL of 0.28 M Na2CO3—NaHCO3 buffer solution (pH 10.0, 8.0 mM MgSO4), and finally 50 μL of alkaline phosphatase substrate (LUMISTEIN, Genomescience Co.) was added. After reacting for one hour, the alkaline phosphatase activity of the PLAP was measured by detecting the chemical luminescence by a micro plate reader (Perkin-Elmer Co.). The PLAP activity under normoxia was set as 0%, the PLAP activity of cell which was treated under hypoxia was set as 100%, and the concentration suppressing the PLAP activity by 50% was set as the IC50 value of PLAP. The IC50 values of 11107D derivatives shown in Examples were measured, and the IC50 values of representative 11107D derivatives are shown in Table 1.

[1] = test system: WiDr human colon cancer cells; experiment: Growth inhibitory activities on WiDr human colon cancer cells (MTT); format: cell-based; conditions: 72 h, three days incubation
Method: WiDr human colon cancer cells cultured in DULBECCO-modified eagle medium (DMEM; manufactured by SIGMA Co., Ltd.) containing 10% fetal calf serum, penicillin (100 unit/mL) and streptomycin (100 μg/mL) were dispensed in 96-well plates by 2×10^3 cells/well. After culturing overnight in a CO2 incubator, 20 μL of the above-mentioned incubation solution containing the test compound diluted with 3-fold succession was added, followed by incubation. After three days, 50 μL of 3.3 mg/mL MTT solution was added, followed by culturing for further one hour. Then, formazan formed by the reduction by the action of living cells was extracted with 100 μL of DMSO, the absorbance (A540/A660) was determined and was set as the index of the number of living cells.
The concentrations of the compounds of the formula (I) at which the growth of WiDr human colon cancer cells are inhibited 50% were determined.

[2] = Body weight loss (acute toxicity) in the WiDr tumor model; format: in vivo, nude mice; conditions: Dose 2.5 mg/kg, intravenous 5 consecutive days; body weight relative to Day 1
Source text: (§1) In order to study solid tumor growth inhibitory activities of the compounds of the formula (I) in vivo, WiDr human colon cancer cells were implanted subcutaneously into the flanks of nude mice. […]. The animals were grouped so that the average of the volumes of the respective groups became uniform, when it reached about 100 mm^3. Control group was made up of 10 mice and 11107D-administering groups were made up of 5 mice. The derivatives were administered for the administering groups for 5 consecutive days by intravenous injection so as to be any of 0.625 mg, 1.25 mg, 2.5 mg, 5 mg and 10 mg/kg/day, and a vehicle was administered to the control group. The tumor volumes on Day 15 were measured, and relative tumor volume ratios (T/C %) were determined setting the tumor volume of the control group as 100%. The body weights on Day 1, Day 5, Day 8, Day 12 and Day 15 (or 16) were measured, and relative body weight variations were determined setting the body weight on Day 1 as 100%. The relative body weight ratios on the day where the body weight reached the minimum were defined as the minimum relative weight ratios and are shown in Table 3.

[3] = test system: WiDr human colon cancer cells; experiment: Solid tumor growth inhibitory activities, WiDr human colon tumor model in nude mice; format: in vivo; conditions: Mus musculus, iv, 360 h, read-out: Growth inhibitory activities in the WiDr human solid tumor model (T/C %)
Source text: as §1

[4] = Stability in an aqueous solution (HPLC residual ratio); conditions: for Peak area (mAU × sec) after 24 hours / The residual ratios (%): Britton-Robinson's buffer pH 7, 25° C., 24 hours; for Peak area (mAU × sec) initial: Britton-Robinson's buffer pH 7, before incubation
Method: The compounds of the formula (I) were dissolved in DMSO in concentrations of 10 to 20 mM, and these were diluted about 500 folds with Britton-Robinson's buffer solution of pH 7. Each of the solutions as sample solutions was incubated at 25° C. for 24 hours.
The sample solutions were analyzed by high performance liquid chromatography before and after incubation, and the residual ratios of the tested substances in the sample solutions after incubation were determined from the peak areas of the obtained chromatograms.

SMILES | IC50 (VEGF promoter; U-251, 18 h) | IC50 [1] | the minimum relative weight ratios [2] | response vs control in vivo at 2.5 mg/kg [3] | IC50 (VEGF promoter; U-251, U251/1-8 cells, hypoxic incubator 18 hours, PLAP activity) | Peak area (mAU × sec) after 24 hours [4] | The residual ratios (%) [4] | Peak area (mAU × sec) initial [4]
CCC(O)C(C)C1OC1CC(C)(O)/C=C/C=C(\C)C1OC(=O)CC(O)CCC(C)(OC)C(OC(=O)N2CCCN(C3CCCCC3)CC2)/C=C/C1C (centres unmarked) [Compound 95, (8E,12E,14E)-7-((4-Cyclohexylhomopiperazin-1-yl)carbonyl)oxy-3,16,21-trihydroxy-6-methoxy-6,10,12,16,20-pentamethyl-18,19-epoxytricosa-8,12,14-trien-11-olide] | 1.2 nM | 0.5 nM | – | – | – | – | – | –
CCCN1CCN(C(=O)OC2/C=C/C(C)C(/C(C)=C/C=C/C(C)(O)CC3OC3C(C)C(O)CC)OC(=O)CC(O)CCC2(C)O)CC1 (centres unmarked) [Compound 25, (8E,12E,14E)-3,6,16,21-Tetrahydroxy-6,10,12,16,20-pentamethyl-7-((4-propylpiperazin-1-yl)carbonyl)oxy-18,19-epoxytricosa-8,12,14-trien-11-olide] | 2.9 nM | 1.2 nM | – | – | – | – | – | –
CCC(O)C(C)C1OC1CC(C)(O)/C=C/C=C(\C)C1OC(=O)CC(O)CCC(C)(O)C(OC(=O)N(C)C2CCN(C)CC2)/C=C/C1C (centres unmarked) [Compound 15, (8E,12E,14E)-3,6,16,21-Tetrahydroxy-6,10,12,16,20-pentamethyl-7-(N-methyl-N-(1-methylpiperidin-4-yl)carbamoyloxy)-18,19-epoxytricosa-8,12,14-trien-11-olide] | – | – | 0.82 | 36% | – | – | – | –
CCOC1(C)CCC(O)CC(=O)OC(/C(C)=C/C=C/C(C)(O)CC2OC2C(C)C(O)CC)C(C)/C=C/C1OC(=O)N1CCN(C)CC1 (centres unmarked) [Compound 127, (8E,12E,14E)-6-Ethoxy-3,16,21-trihydroxy-6,10,12,16,20-pentamethyl-7-((4-methylpiperazin-1-yl)carbonyl)oxy-18,19-epoxytricosa-8,12,14-trien-11-olide] | – | 0.7 nM | – | – | 2.4 nM | – | – | –
CCC(O)C(C)C1OC1CC(C)(O)/C=C/C=C(\C)C1OC(=O)CC(O)CCC(C)(O)C(OC(=O)CCc2ccccc2)/C=C/C1C (centres unmarked) [Compound 142, (8E,12E,14E)-3,6,16,21-Tetrahydroxy-6,10,12,16,20-pentamethyl-7-(3-phenylpropanoyl)oxy-18,19-epoxytricosa-8,12,14-trien-11-olide] | 11.2 nM | 4.9 nM | – | – | – | 3705 mAU × sec | 94.6% | 3916 mAU × sec
CCC(O)C(C)C1OC1CC(C)(O)/C=C/C=C(\C)C1OC(=O)CC(O)CCC(C)(O)C(OC(=O)N2CCN(CC3CC3)CC2)/C=C/C1C (centres unmarked) [Compound 27, (8E,12E,14E)-7-((4-(Cyclopropylmethyl)piperazin-1-yl)carbonyl)oxy-3,6,16,21-tetrahydroxy-6,10,12,16,20-pentamethyl-18,19-epoxytricosa-8,12,14-trien-11-olide] | 3.7 nM | 1.2 nM | – | – | – | – | – | –
CCC(O)C(C)C1OC1CC(C)(O)/C=C/C=C(\C)C1OC(=O)CC(O)CCC(C)(OC(=O)N2CCCN(CC)CC2)C(OC(C)=O)/C=C/C1C (centres unmarked) [Compound 136, (8E,12E,14E)-7-Acetoxy-6-((4-ethylhomopiperazin-1-yl)carbonyl)oxy-3,16,21-trihydroxy-6,10,12,16,20-pentamethyl-18,19-epoxytricosa-8,12,14-trien-11-olide] | 1.2 nM | 0.8 nM | – | – | – | 3579 mAU × sec | 95.4% | 3750 mAU × sec
CCC(O)C(C)C1OC1CC(C)(O)/C=C/C=C(\C)C1OC(=O)CC(O)CCC(C)(O)C(OC(=O)N2CCN(Cc3ccccc3)CC2)/C=C/C1C (centres unmarked) [Compound 24, (8E,12E,14E)-7-((4-Benzylpiperazin-1-yl)carbonyl)oxy-3,6,16,21-tetrahydroxy-6,10,12,16,20-pentamethyl-18,19-epoxytricosa-8,12,14-trien-11-olide] | 5.5 nM | 5.3 nM | – | – | – | – | – | –
CCC(O)C(C)C1OC1CC(C)(O)/C=C/C=C(\C)C1OC(=O)CC(O)CCC(C)(O)C(OC(=O)N2CCCN(Cc3ccccc3)CC2)/C=C/C1C (centres unmarked) [Compound 17, (8E,12E,14E)-7-((4-Benzylhomopiperazin-1-yl)carbonyl)oxy-3,6,16,21-tetrahydroxy-6,10,12,16,20-pentamethyl-18,19-epoxytricosa-8,12,14-trien-11-olide] | 3.9 nM | 2.6 nM | – | – | – | – | – | –
CCC(OC)C(C)C1OC1CC(C)(O)/C=C/C=C(\C)C1OC(=O)CC(O)CCC(C)(O)C(OC(=O)N2CCN(C(C)C)CC2)/C=C/C1C (centres unmarked) [Compound 130, (8E,12E,14E)-3,6,16-Trihydroxy-7-((4-isopropylpiperazin-1-yl)carbonyl)oxy-21-methoxy-6,10,12,16,20-pentamethyl-18,19-epoxytricosa-8,12,14-trien-11-olide] | – | – | – | – | – | 4583 mAU × sec | 95.1% | 4819 mAU × sec
CCC(O)C(C)C1OC1CC(C)(O)/C=C/C=C(\C)C1OC(=O)CC(O)CCC(C)(OC)C(OC(=O)N2C[C@@H]3C[C@H]2CN3CC)/C=C/C1C (stereo in doubt) [Compound 122, (8E,12E,14E)-7-(((1S,4S)-5-Ethyl-2,5-diazabicyclo[2.2.1]heptan-2-yl)carbonyl)oxy-3,16,21-trihydroxy-6-methoxy-6,10,12,16,20-pentamethyl-18,19-epoxytricosa-8,12,14-trien-11-olide] | 4.4 nM | 1.1 nM | – | – | – | 4620 mAU × sec | 94.8% | 4872 mAU × sec
CCC(O)C(C)C1OC1CC(C)(O)/C=C/C=C(\C)C1OC(=O)CC(O)CCC(C)(O)C(OC(=O)N2CCN(C)CC2)/C=C/C1C (centres unmarked) [Compound 12, (8E,12E,14E)-3,6,16,21-Tetrahydroxy-6,10,12,16,20-pentamethyl-7-((4-methylpiperazin-1-yl)carbonyl)oxy-18,19-epoxytricosa-8,12,14-trien-11-olide] | 10.2 nM | – | 0.85 | 21% | – | 5169 mAU × sec | 94.9% | 5450 mAU × sec
